The record followed here is patent US20070129367A1, “Pyridine derivatives as cb2 receptor modulators” (priority 2002, published 2007).

Like-named read-outs stand apart in the source and are kept apart here.

This assay addresses T1, human cannabinoid CB2 receptor (Homo sapiens, UniProt P34972).
T1 construct: expressed in transfected cells; host or cells: Saccharomyces cerevisiae strain MMY23 (cassette integrated at the ura3 locus, GPD promoter)
The assay can be described thus: Cannabinoid CB2 receptor agonist activity in yeast (Saccharomyces cerevisiae) cells expressing the receptor, FDGlu fluorescence readout. The format is cell-based. Conditions: for Emax: read-out: efficacy (Emax) at the cloned human cannabinoid CB2 receptor. How it is done:
Determination of Cannabinoid CB2 Receptor Agonist Activity
The cannabinoid CB2 receptor agonist activity of the compounds of formula (I) was determined in accordance with the following experimental method.
Yeast (Saccharomyces cerevisiae) cells expressing the human cannabinoid CB2 receptor were generated by integration of an expression cassette into the ura3 chromosomal locus of yeast strain MMY23. This cassette consisted of DNA sequence encoding the human CB2 receptor flanked by the yeast GPD promoter to the 5′ end of CB2 and a yeast transcriptional terminator sequence to the 3′ end of CB2. MMY23 expresses a yeast/mammalian chimeric G-protein alpha subunit in which the C-terminal 5 amino acids of Gpa1 are replaced with the C-terminal 5 amino acids of human Gαi3 (as described in Brown et aL (2000), Yeast 16:11-22). Cells were grown at 30° C. in liquid Synthetic Complete (SC) yeast media (Guthrie and Fink (1991), Methods in Enzymology, Vol. 194) lacking uracil, tryptophan, adenine and leucine to late logarithmic phase (approximately 6 OD600/ml).
Agonists were prepared as 10 mM stocks in DMSO. […] Agonist solutions in DMSO (1% final assay volume) were transferred into black, clear bottom, microtitre plates from NUNC (96- or 384-well). […] This mixture (50 ul per well for 384-well plates, 200 ul per well for 96-well plates) was added to agonist in the assay plates (Multidrop 384, Labsystems). After incubation at 30° C. for 24 hours, fluorescence resulting from degradation of FDGlu to fluorescein due to exoglucanase, an endogenous yeast enzyme produced during agonist-stimulated cell growth, was determined using a Spectrofluor microtitre plate reader (Tecan; excitation wavelength: 485 nm; emission wavelength: 535 nm). Fluorescence was plotted against compound concentration and iteratively curve fitted using a four parameter fit to generate a concentration effect value. […] Equieffective molar ratio (EMR) values were calculated from the equation EMR=EC50 [compound X]/EC50 [HU210]
Where EC50 [compound X] is the EC50 of compound X and EC50 [HU210] is the EC50 of HU210.

Where [1] appears, read: agonist activity, yeast cells, 24 hours at 30° C., read-out: EC50 at the cloned human cannabinoid CB2 receptor.

T1 sequence (P34972 whole entry): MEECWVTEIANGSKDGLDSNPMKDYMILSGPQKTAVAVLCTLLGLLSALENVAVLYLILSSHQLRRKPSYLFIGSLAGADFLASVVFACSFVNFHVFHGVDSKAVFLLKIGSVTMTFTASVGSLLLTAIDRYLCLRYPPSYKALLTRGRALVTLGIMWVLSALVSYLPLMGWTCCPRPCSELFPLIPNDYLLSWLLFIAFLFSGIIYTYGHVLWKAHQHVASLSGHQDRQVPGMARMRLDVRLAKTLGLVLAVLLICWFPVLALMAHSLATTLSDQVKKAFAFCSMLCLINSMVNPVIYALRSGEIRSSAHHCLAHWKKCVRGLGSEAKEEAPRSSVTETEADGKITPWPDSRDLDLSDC

As usually defined, the EC50 is the concentration needed to bring the measured effect to its halfway point. For orientation: Emax means the greatest response seen or fitted, relative to the assay's reference. With `CC(C)c1cc(Nc2ccc(Br)cc2Cl)ncc1C(=O)NCc1ccc(F)cc1` [Example 21, 6-(4-Bromo-2-chloro-phenylamino)-N-(4-fluoro-benzyl)-4-isopropyl-nicotinamide], the EC50 is under 0.3 µM and the Emax was over 50%.
The like results for `CC(C)c1cc(Nc2ccc(Cl)cc2Cl)ncc1C(=O)NCc1ccc(F)cc1` [Example 22, 6-(2,4-Dichloro-phenylamino)-N-(4-fluoro-benzyl)-4-isopropyl-nicotinamide] were, in that order, under 0.3 µM and over 50%.
On to `CC(C)c1cc(Nc2ccc(C#N)c(Cl)c2)ncc1C(=O)NCc1ccc(F)cc1` [Example 23, 6-(3-Chloro-4-cyano-phenylamino)-N-(4-fluoro-benzyl)-4-isopropyl-nicotinamide], for which the EC50 was under 0.3 µM and the Emax was over 50%.
Regarding `CC(C)c1cc(Nc2ccc(Br)c(F)c2)ncc1C(=O)NCc1ccc(F)cc1` [Example 24, 6-(4-Bromo-3-fluoro-fluoro-benzyl)-4-phenylamino)-N-(4-isopropyl-nicotinamide], the concentration giving a half-maximal response (EC50) under setting [1] is under 0.3 µM.
`CC(C)c1cc(Nc2cccc(OC(F)(F)F)c2)ncc1C(=O)NCc1ccc(F)cc1` [Example 25, N-(4-Fluoro-benzyl)-4-isopropyl-6-(3-trifluoromethoxy-phenylamino)-nicotinamide]: the concentration giving a half-maximal response (EC50) lay in the range of 0.3 to 1 µM and the Emax was over 50%.
On to `CC(C)c1cc(Nc2cccc(Cl)c2F)ncc1C(=O)NCc1ccc(F)cc1` [Example 26, 6-(3-Chloro-2-fluoro-phenylamino)-N-(4-fluoro-benzyl)-4-isopropyl-nicotinamide], for which the EC50 lay within 0.3 to 1 µM and the Emax was over 50%.
Turning to `Cc1c(Br)cccc1Nc1cc(C(C)C)c(C(=O)NCc2ccc(F)cc2)cn1` [Example 27, 6-(3-Bromo-2-methyl-phenylamino)-N-(4-fluoro-benzyl)-4-isopropyl-nicotinamide], the EC50 was in the range of 0.3 to 1 µM and the maximal effect (Emax) is over 50%.
In the case of `Cc1c(Cl)cccc1Nc1cc(C(C)C)c(C(=O)NCc2ccc(F)cc2)cn1` [Example 28, 6-(3-Chloro-2-methyl-phenylamino)-N-(4-fluoro-benzyl)-4-isopropyl-nicotinamide], the EC50 lay within 0.3 to 1 µM and the Emax was over 50%.
`Cc1cccc(Nc2cc(C(C)C)c(C(=O)NCc3ccc(F)cc3)cn2)c1` [Example 29, N-(4-Fluoro-benzyl)-4-isopropyl-6-m-tolylamino-nicotinamide]: the EC50 lay within 0.3 to 1 µM and the Emax was over 50%.
With `COc1cccc(Nc2cc(C(C)C)c(C(=O)NCc3ccc(F)cc3)cn2)c1` [Example 30], the 50% effective concentration (EC50) was in the range of 0.3 to 1 µM and the maximal response (Emax) is over 50%.
Take `CC(C)c1cc(Nc2ccc(Br)cc2F)ncc1C(=O)NCc1ccc(F)cc1` [Example 31, 6-(4-Bromo-2-fluoro-phenylamino)-N-(4-fluoro-benzyl)-4-isopropyl-nicotinamide]: the EC50 under setting [1] is 0.3 to 1 µM.
Regarding `CC(C)c1cc(Nc2ccc(Cl)c(Cl)c2)ncc1C(=O)NCc1ccc(F)cc1` [Example 32, 6-(3,4-Dichloro-phenylamino)-N-(4-fluoro-benzyl)-4-isopropyl-nicotinamide], the EC50 was 0.3 to 1 µM and the Emax is over 50%.
On to `O=C(NCc1ccc(F)cc1)c1cnc(Nc2cccc(Cl)c2)cc1C(F)(F)F` [Example 44, N-(4-Fluoro-benzyl)-6-(3-chloro-phenylamino)-4-trifluoromethyl-nicotinamide], for which the EC50 was under 0.3 µM and the Emax was over 50%.
Consider `O=C(NCc1ccnc(F)c1)c1cnc(Nc2cccc(Cl)c2)cc1C(F)(F)F` [Example 45, N-(2-Fluoro-pyridin-4-ylmethyl)-6-(3-chloro-phenylamino)-4-trifluoromethyl-nicotinamide], for which the EC50 is under 0.3 µM and the maximum response (Emax) is over 50%.
Turning to `O=C(NCc1ccc(F)cc1)c1cnc(Nc2cccc(Br)c2)cc1C(F)(F)F` [Example 46, N-(4-Fluoro-benzyl)-6-(3-bromo-phenylamino)-4-trifluoromethyl-nicotinamide], the Emax is over 50%.
